Measured values taken from US8304447B2, “2-acylaminopropoanol-type glucosylceramide synthase inhibitors” (Genzyme Corporation, priority 2007, dated 2012).

Test system: GM3
Test: GM3 Elisa assay
Type: cell-based
Settings: Table 3 (IC 50 Values); B16-FO cells; read-out: IC50_uM_Mean
How it was run: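 Cellular GM3 ELISA: fixed cells probed with monoclonal anti-GM3 (NeuAc), HRP-conjugated anti-IgM and fluorogenic Quantablu substrate, read at Ex 325/Em 420. Cells were B16-FO, treated 2 days after a 6 h attachment on collagen-coated wells.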

Row | IC50 | Compound
1 | ≤ 0.1 µM | COc1ccc(C(=O)CCCCCC(=O)N[C@H](CN2CCC[C@@H]2C)[C@@H](O)c2ccc3c(c2)OCCO3)cc1 [Compound 525]
2 | 0.1 to 1 µM | COc1ccc(OCCC(=O)N[C@H](CN2CCC[C@@H]2C)[C@@H](O)c2ccc3c(c2)OCCO3)cc1 [Compound 526]
3 | 1 to 3 µM | CCCCCCCC(=O)N[C@H](CN1CCC[C@@H]1C)[C@@H](O)c1ccc2c(c1)OCCO2 [Compound 527]
4 | 1 to 3 µM | COc1ccc(OCCC(=O)N[C@H](CN2CCC[C@H]2C)[C@@H](O)c2ccc3c(c2)OCCO3)cc1 [Compound 528]
5 | ≤ 0.1 µM | COc1ccc(C(=O)CCCCCC(=O)N[C@H](CN2CCC[C@H]2C)[C@@H](O)c2ccc3c(c2)OCCO3)cc1 [Compound 529]
6 | 3 to 10 µM | CCCCCCCC(=O)N[C@H](CN1CCC[C@H]1C)[C@@H](O)c1ccc2c(c1)OCCO2 [Compound 530]
7 | ≤ 0.1 µM | COc1ccc(C(=O)CCCCCC(=O)N[C@H](CN2CC[C@@H](F)C2)[C@H](O)c2ccc3c(c2)OCCO3)cc1 [Compound 531]
8 | ≤ 0.1 µM | COc1ccc(C(=O)CCCCCC(=O)N[C@H](CN2CC[C@H](O)C2)[C@H](O)c2ccc3c(c2)OCCO3)cc1 [Compound 532]
9 | 0.1 to 1 µM | COC[C@@H]1CCCN1C[C@@H](NC(=O)CCCCCC(=O)c1ccc(OC)cc1)[C@@H](O)c1ccc2c(c1)OCCO2 [Compound 533]
10 | 3 to 10 µM | CCCCCCCC(=O)N[C@H](CN1CCC[C@H]1COC)[C@@H](O)c1ccc2c(c1)OCCO2 [Compound 534]
11 | 3 to 10 µM | COC[C@@H]1CCCN1C[C@@H](NC(=O)CCOc1ccc(OC)cc1)[C@@H](O)c1ccc2c(c1)OCCO2 [Compound 535]
12 | 3 to 10 µM | COc1ccc(C(=O)CCCCCC(=O)NCCN2CCCC2)cc1 [Compound 536]
13 | ≤ 0.1 µM | COc1ccc(C(=O)CCCCCC(=O)N[C@H](CN2CC3CC3C2)[C@H](O)c2ccc3c(c2)OCCO3)cc1 (stereo partly drawn) [Compound 537]
14 | 3 to 10 µM | COCC1CCCN1C[C@@H](NC(=O)CCOc1ccc(OC)cc1)[C@H](O)c1ccc2c(c1)OCCO2 (stereo partly drawn) [Compound 538]
15 | 3 to 10 µM | COC[C@H]1CCCN1C[C@@H](NC(=O)CCCCCC(=O)c1ccc(OC)cc1)[C@H](O)c1ccc2c(c1)OCCO2 [Compound 539]
16 | 3 to 10 µM | CCCCCCCC(=O)N[C@H](CN1CCC[C@@H]1COC)[C@H](O)c1ccc2c(c1)OCCO2 [Compound 540]
17 | 3 to 10 µM | COc1ccc(C(=O)CCCCCC(=O)N[C@@H](Cc2ccccc2)CN2CCCC2)cc1 [Compound 541]
18 | 3 to 10 µM | COc1ccc(OCCC(=O)N[C@H](CN2CCC[C@H]2C(F)(F)F)[C@H](O)c2ccc3c(c2)OCCO3)cc1 [Compound 542]
19 | 3 to 10 µM | CCCCCCCC(=O)N[C@H](CN1CCC[C@H]1C(F)(F)F)[C@H](O)c1ccc2c(c1)OCCO2 [Compound 543]
20 | 0.1 to 1 µM | COc1ccc(OCCC(=O)N[C@H](CN2C[C@@H]3CC[C@H]2C3)[C@H](O)c2ccc3c(c2)OCCO3)cc1 [Compound 544]
21 | 0.1 to 1 µM | CCCCCCCC(=O)N[C@H](CN1C[C@@H]2CC[C@H]1C2)[C@H](O)c1ccc2c(c1)OCCO2 [Compound 545]
22 | 3 to 10 µM | CCCCCCCC(=O)N[C@H](CN1CCC[C@@H]1C(F)(F)F)[C@H](O)c1ccc2c(c1)OCCO2 [Compound 546]
23 | ≤ 0.1 µM | COc1ccc(C(=O)CCCCCC(=O)N[C@H](CN2C[C@@H]3CC[C@H]2C3)[C@H](O)c2ccc3c(c2)OCCO3)cc1 [Compound 547]
24 | 1 to 3 µM | COc1ccc(C(=O)CCCCCC(=O)N[C@H](CN2[C@H](C)CC[C@H]2C)[C@H](O)c2ccc3c(c2)OCCO3)cc1 [Compound 548]
25 | 3 to 10 µM | CCCCCCCC(=O)N[C@H](CN1[C@H](C)CC[C@H]1C)[C@H](O)c1ccc2c(c1)OCCO2 [Compound 549]
26 | 3 to 10 µM | COc1ccc(OCCC(=O)N[C@H](CN2[C@H](C)CC[C@H]2C)[C@H](O)c2ccc3c(c2)OCCO3)cc1 [Compound 550]

Row | Compound | IC50
27 | CCCCCCCC(=O)N[C@H](CN1C2CCC1CC2)[C@H](O)c1ccc2c(c1)OCCO2 [Compound 524] | 0.1 to 1 µM
